For one test, the system named is Sprague-Dawley (SD) rats. Briefly: Urinary glucose excretion test in rats. The settings on record: male SD rats; 30 mg/kg by oral gavage; urine collected for 24 hours; daily amount of glucose excreted in urine per individual. Type of test: in vivo, rat. As for the experimental part:
2. Urinary Glucose Excretion Test in Rats Test Compounds:
Compounds described in the above examples were used for the Urinary glucose excretion test in rats.
6-week-old male Sprague-Dawley (SD) rats were housed in individual metabolic cages with free access to food and water from 2 days prior to the experiment. On the morning of the experiment, rats were administered vehicle (0.2% carboxymethyl cellulose solution containing 0.2% Tween80) or test compounds (30 mg/kg) by oral gavage at a volume of 10 ml/kg. Then, urine of the rat was collected for 24 hours, and the urine volume was measured. Subsequently, the glucose concentration in urine was quantified using the enzymatic assay kit and the daily amount of glucose excreted in urine per individual was calculated.

For the next test, the target named is T1, human SGLT2 (Homo sapiens, UniProt P31639).
T1 construct: expressed in transfected cells; host or cells: CHOK1 (Chinese hamster ovary) cells, kept under Geneticin selection
T1 sequence (P31639 1-672): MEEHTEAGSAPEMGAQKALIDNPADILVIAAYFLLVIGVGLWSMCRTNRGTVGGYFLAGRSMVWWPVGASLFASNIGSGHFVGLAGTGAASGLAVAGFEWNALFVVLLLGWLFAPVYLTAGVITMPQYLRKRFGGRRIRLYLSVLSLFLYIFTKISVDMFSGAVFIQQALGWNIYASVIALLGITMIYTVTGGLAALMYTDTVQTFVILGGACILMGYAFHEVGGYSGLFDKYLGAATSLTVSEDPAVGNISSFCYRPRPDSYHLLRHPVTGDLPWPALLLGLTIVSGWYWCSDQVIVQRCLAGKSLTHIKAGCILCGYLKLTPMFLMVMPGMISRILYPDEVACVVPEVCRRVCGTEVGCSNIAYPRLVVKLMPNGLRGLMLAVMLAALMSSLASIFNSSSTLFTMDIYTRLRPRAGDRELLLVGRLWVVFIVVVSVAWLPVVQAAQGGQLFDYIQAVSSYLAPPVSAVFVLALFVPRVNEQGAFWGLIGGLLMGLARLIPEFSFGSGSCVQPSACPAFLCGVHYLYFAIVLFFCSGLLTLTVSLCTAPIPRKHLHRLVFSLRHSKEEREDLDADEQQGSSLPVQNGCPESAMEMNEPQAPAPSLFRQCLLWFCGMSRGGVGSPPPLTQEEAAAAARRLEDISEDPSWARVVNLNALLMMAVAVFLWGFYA
Briefly: Assay for SGLT2 inhibition (14C-AMG uptake in CHOK1 cells expressing human SGLT2). It is filed as cell-based. The following applies: CHOK1 cells expressing human SGLT2; 14C-AMG uptake, 0.5 mM, 2 hours at 37° C.; read-out: IC50. How it is done: 1. Assay for SGLT2 Inhibition
Compounds described in the above examples were used for the SGLT2 inhibition assay.
CHOK1 cells expressing human SGLT2 were seeded in 24-well plates at a density of 400,000 cells/well in F-12 nutrient mixture (Ham's F-12) containing 10% fetal bovine serum, 400 μg/ml Geneticin, 50 units/ml sodium penicillin G (Gibco-BRL) and 50 μg/ml streptomycin sulfate. After 2 days of culture at 37° C. in a humidified atmosphere containing 5% CO2, cells were washed once with the assay buffer (137 mM NaCl, 5 mM KCl, 1 mM CaCl2, 1 mM MgCl2, 50 mM Hepes, and 20 mM Tris, pH 7.4) and incubated with 250 μl of the buffer containing test compounds for 10 min at 37° C. Test compounds were dissolved in DMSO. The final concentration of DMSO was 0.5%. The transport reaction was initiated by addition of 50 μl [^14C]-methyl-α-D-glucopyranoside (^14C-AMG) solution (final concentration, 0.5 mM). After incubation for 2 hours at 37° C., the uptake was stopped by aspiration of the incubation mixture, the cells were washed three times with ice-cold PBS. Then, cells were solubilized with 0.3 N NaOH and aliquots were taken for determination of radioactivity by a liquid scintillation counter. Nonspecific AMG uptake was defined as that which occurred in the presence of 100 μM of phlorizin, a specific inhibitor of sodium-dependent glucose cotransporter. Specific uptake was normalized for the protein concentrations measured by the method of Bradford. The 50% inhibitory concentration (IC50) values were calculated from dose-response curves by least square method.

What is called IC50 is the concentration that gives 50% inhibition.

As to `OC[C@H]1O[C@@H](n2cc(Cc3ccc4occc4c3)c3c(Cl)cccc32)[C@H](O)[C@@H](O)[C@@H]1O` [Example 15, 3-(Benzo[b]furan-5-yl-methyl)-4-chloro-1-(β-D-glucopyranosyl)indole], in the test with Sprague-Dawley (SD) rats, the Urinary glucose result is recorded as “A (A≧2400 mg)”. Further, the 50% inhibitory concentration (IC50) at human SGLT2 worked out at 3.3 nM.

In the case of `CCc1ccc(Cc2cn([C@@H]3O[C@H](CO)[C@@H](O)[C@H](O)[C@H]3O)c3cccc(F)c23)s1` [Example 18, 3-(5-Ethylthiophen-2-yl-methyl)-4-fluoro-1-(β-D-gluco-pyranosyl)indole], in the test on Sprague-Dawley (SD) rats, the Urinary glucose result is on record as “B (2400 mg>B≧2000 mg)”. Moreover, the half-inhibitory concentration (IC50) on human SGLT2 amounted to 4.1 nM.

For the molecule `OC[C@H]1O[C@@H](n2cc(Cc3ccc(OCCCl)cc3)c3c(Cl)cccc32)[C@H](O)[C@@H](O)[C@@H]1O` [Example 19, 4-Chloro-3-(4-(2-chloroethyloxy)phenylmethyl)-1-(β-D-gluco-pyranosyl)indole], the Urinary glucose result with Sprague-Dawley (SD) rats was “A (A≧2400 mg)”. The IC50 at human SGLT2 turned out to be 3.9 nM.

As to `OC[C@H]1O[C@@H](n2cc(Cc3ccc4occc4c3)c3c(F)cccc32)[C@H](O)[C@@H](O)[C@@H]1O` [Example 20, 3-(Benzo[b]furan-5-yl-methyl)-4-fluoro-1-(β-D-glucopyranosyl) indole], the Urinary glucose entry in the test on Sprague-Dawley (SD) rats is on record as “A (A≧2400 mg)”. Further, the half-inhibitory concentration (IC50) at human SGLT2 stood at 5.7 nM.

`OC[C@H]1O[C@@H](n2cc(Cc3ccc(C(F)F)cc3)c3c(F)cccc32)[C@H](O)[C@@H](O)[C@@H]1O` [Example 25, 3-(4-(Difluoromethyl)phenylmethyl)-4-fluoro-1-(β-D-gluco-pyranosyl)indole]: the Urinary glucose entry in the test on Sprague-Dawley (SD) rats is “B (2400 mg>B≧2000 mg)”. For the same molecule, the concentration for half-maximal inhibition (IC50) at human SGLT2 amounted to 11 nM.

`OC[C@H]1O[C@@H](n2cc(Cc3ccc(OC(F)F)cc3)c3c(F)cccc32)[C@H](O)[C@@H](O)[C@@H]1O` [Example 26, 3-(4-(Difluoromethoxy)phenylmethyl)-4-fluoro-1-(β-D-gluco-pyranosyl)indole]: the Urinary glucose entry in the test with Sprague-Dawley (SD) rats is “A (A≧2400 mg)”. Moreover, the 50% inhibitory concentration (IC50) on human SGLT2 stood at 11 nM.

On to `OC[C@H]1O[C@@H](n2cc(Cc3ccc(F)cc3)c3c(Cl)cccc32)[C@H](O)[C@@H](O)[C@@H]1O` [Example 27, 4-Chloro-3-(4-fluorophenylmethyl)-1-(β-D-glucopyranosyl)-indole], for which the Urinary glucose result in the test with Sprague-Dawley (SD) rats is given as “B (2400 mg>B≧2000 mg)”. At human SGLT2, the IC50 was 16 nM.

Take `CCOc1ccc(Cc2cn([C@@H]3O[C@H](CO)[C@@H](O)[C@H](O)[C@H]3O)c3cc(Cl)cc(Cl)c23)cc1` [Example 28, 4,6-Dichloro-3-(4-ethoxyphenylmethyl)-1-(β-D-glucopyranosyl)-indole]: the Urinary glucose entry in the test on Sprague-Dawley (SD) rats was “B (2400 mg>B≧2000 mg)”. The half-inhibitory concentration (IC50) at human SGLT2 is 3.2 nM.

Consider `OC[C@H]1O[C@@H](n2cc(Cc3ccc(OC(F)(F)F)cc3)c3c(Cl)cccc32)[C@H](O)[C@@H](O)[C@@H]1O` [Example 29, 4-Chloro-3-(4-(trifluoromethoxy)phenylmethyl)-1-(β-D-gluco-pyranosyl)indole], for which the Urinary glucose entry in the test on Sprague-Dawley (SD) rats is “B (2400 mg>B≧2000 mg)”. In addition, on human SGLT2, the concentration for half-maximal inhibition (IC50) is 9.6 nM.

On to `OC[C@H]1O[C@@H](n2cc(Cc3ccc(C(F)F)cc3)c3c(Cl)cccc32)[C@H](O)[C@@H](O)[C@@H]1O` [Example 30, 4-Chloro-3-(4-(difluoromethyl)phenylmethyl)-1-(β-D-gluco-pyranosyl)indole], for which the Urinary glucose entry in the test with Sprague-Dawley (SD) rats is “A (A≧2400 mg)”. Moreover, the IC50 at human SGLT2 worked out at 3.2 nM.

On to `OC[C@H]1O[C@@H](n2cc(Cc3ccc(OC(F)F)cc3)c3c(Cl)cccc32)[C@H](O)[C@@H](O)[C@@H]1O` [Example 31, 4-Chloro-3-(4-(difluoromethoxy)phenylmethyl)-1-(β-D-gluco-pyranosyl)indole], for which, in the test on Sprague-Dawley (SD) rats, the Urinary glucose result is reported as “A (A≧2400 mg)”. Also, the IC50 on human SGLT2 was determined as 2.6 nM.

Take `OC[C@H]1O[C@@H](n2cc(Cc3ccc4occc4c3)c3c(Cl)cc(Cl)cc32)[C@H](O)[C@@H](O)[C@@H]1O` [Example 32, 3-(Benzo[b]furan-5-yl-methyl)-4,6-dichloro-1-(β-D-gluco-pyranosyl)indole]: the Urinary glucose entry in the test on Sprague-Dawley (SD) rats is “B (2400 mg>B≧2000 mg)”. Further, the IC50 at human SGLT2 was 7.5 nM.

With `OC[C@H]1O[C@@H](n2cc(Cc3ccc(I)cc3)c3c(Cl)cccc32)[C@H](O)[C@@H](O)[C@@H]1O` [Example 33, 4-Chloro-3-(4-iodophenylmethyl)-1-(β-D-glucopyranosyl)-indole], the Urinary glucose entry in the test on Sprague-Dawley (SD) rats was “A (A≧2400 mg)”. For the same molecule, the IC50 on human SGLT2 came to 4.1 nM.

With `OC[C@H]1O[C@@H](n2cc(Cc3ccc4occc4c3)c3c(Cl)c(F)ccc32)[C@H](O)[C@@H](O)[C@@H]1O` [Example 34, 3-(Benzo[b]furan-5-yl-methyl)-4-chloro-5-fluoro-1-(β-D-gluco-pyranosyl)indole], the Urinary glucose result in the test with Sprague-Dawley (SD) rats was “B (2400 mg>B≧2000 mg)”. Moreover, the IC50 at human SGLT2 is 11 nM.

For `CCOc1ccc(Cc2cn([C@@H]3O[C@H](CO)[C@@H](O)[C@H](O)[C@H]3O)c3ccc(F)c(Cl)c23)cc1` [Example 35, 4-Chloro-3-(4-ethoxyphenylmethyl)-5-fluoro-1-(β-D-gluco-pyranosyl)indole], the Urinary glucose result in the test with Sprague-Dawley (SD) rats is “A (A≧2400 mg)”. The 50% inhibitory concentration (IC50) at human SGLT2 came out at 9.1 nM.

With `OC[C@H]1O[C@@H](n2cc(Cc3ccc(I)cc3)c3c(Cl)cc(Cl)cc32)[C@H](O)[C@@H](O)[C@@H]1O` [Example 36, 4,6-Dichloro-3-(4-iodophenylmethyl)-1-(β-D-glucopyranosyl)-indole], in the test on Sprague-Dawley (SD) rats, the Urinary glucose entry is reported as “B (2400 mg>B≧2000 mg)”. For the same molecule, the IC50 on human SGLT2 stood at 14 nM.

As for `OC[C@H]1O[C@@H](n2cc(Cc3ccc(I)cc3)c3c(Cl)c(F)ccc32)[C@H](O)[C@@H](O)[C@@H]1O` [Example 37, 4-Chloro-5-fluoro-3-(4-iodophenylmethyl)-1-(β-D-gluco-pyranosyl)indole], the Urinary glucose entry in the test with Sprague-Dawley (SD) rats is “B (2400 mg>B≧2000 mg)”. Besides, the concentration for half-maximal inhibition (IC50) at human SGLT2 came out at 14 nM.

Take `Cc1cccc2c1c(Cc1ccc(Br)cc1)cn2[C@@H]1O[C@H](CO)[C@@H](O)[C@H](O)[C@H]1O` [Example 38, 3-(4-Bromophenylmethyl)-4-methyl-1-(β-D-glucopyranosyl)-indole]: the Urinary glucose result in the test on Sprague-Dawley (SD) rats is reported as “B (2400 mg>B≧2000 mg)”. The IC50 at human SGLT2 was determined as 12 nM.

On to `Cc1cccc2c1c(Cc1ccc(I)cc1)cn2[C@@H]1O[C@H](CO)[C@@H](O)[C@H](O)[C@H]1O` [Example 39, 3-(4-Iodophenylmethyl)-4-methyl-1-(β-D-glucopyranosyl)indole], for which the Urinary glucose entry in the test with Sprague-Dawley (SD) rats was “B (2400 mg>B≧2000 mg)”. In addition, the IC50 on human SGLT2 amounted to 3.6 nM.

Take `Cc1cccc2c1c(Cc1ccc3occc3c1)cn2[C@@H]1O[C@H](CO)[C@@H](O)[C@H](O)[C@H]1O` [Example 40, 3-(Benzo[b]furan-5-yl-methyl)-4-methyl-1-(β-D-glucopyranosyl)indole]: the Urinary glucose result with Sprague-Dawley (SD) rats is “B (2400 mg>B≧2000 mg)”. The IC50 on human SGLT2 came out at 6.2 nM.

`OC[C@H]1O[C@@H](n2cc(Cc3ccc(Br)cc3)c3c(Br)cccc32)[C@H](O)[C@@H](O)[C@@H]1O` [Example 41, 4-Bromo-3-(4-bromophenylmethyl)-1-(β-D-glucopyranosyl)indole]: the Urinary glucose result in the test on Sprague-Dawley (SD) rats is recorded as “B (2400 mg>B≧2000 mg)”. The concentration for half-maximal inhibition (IC50) at human SGLT2 turned out to be 12 nM.

Turning to `OC[C@H]1O[C@@H](n2cc(Cc3ccc(I)cc3)c3c(Br)cccc32)[C@H](O)[C@@H](O)[C@@H]1O` [Example 42, 4-Bromo-3-(4-iodophenylmethyl)-1-(β-D-glucopyranosyl)indole], in the test with Sprague-Dawley (SD) rats, the Urinary glucose entry is “A (A≧2400 mg)”. Besides, the IC50 at human SGLT2 was 6.1 nM.
